Laboratory results: patent US20120083471A1, “Novel Compounds, Pharmaceutical Compositions Containing Same, Methods of Use for Same, and Methods for Preparing Same” (priority 2008, published 2012)
Where two headings read alike, the source gives them in different places.

Experiments:
mtGPAT1 = target: T1, mtGPAT1 (Mus musculus, UniProt Q61586); assay: In vitro mtGPAT inhibition: acylation of 14C-glycerol 3-phosphate with palmitoyl-CoA, scintillation counting; assay type: biochemical
T1 construct: from tissue; host or cells: mitochondrial preparation
T1 sequence (Q61586 1-827): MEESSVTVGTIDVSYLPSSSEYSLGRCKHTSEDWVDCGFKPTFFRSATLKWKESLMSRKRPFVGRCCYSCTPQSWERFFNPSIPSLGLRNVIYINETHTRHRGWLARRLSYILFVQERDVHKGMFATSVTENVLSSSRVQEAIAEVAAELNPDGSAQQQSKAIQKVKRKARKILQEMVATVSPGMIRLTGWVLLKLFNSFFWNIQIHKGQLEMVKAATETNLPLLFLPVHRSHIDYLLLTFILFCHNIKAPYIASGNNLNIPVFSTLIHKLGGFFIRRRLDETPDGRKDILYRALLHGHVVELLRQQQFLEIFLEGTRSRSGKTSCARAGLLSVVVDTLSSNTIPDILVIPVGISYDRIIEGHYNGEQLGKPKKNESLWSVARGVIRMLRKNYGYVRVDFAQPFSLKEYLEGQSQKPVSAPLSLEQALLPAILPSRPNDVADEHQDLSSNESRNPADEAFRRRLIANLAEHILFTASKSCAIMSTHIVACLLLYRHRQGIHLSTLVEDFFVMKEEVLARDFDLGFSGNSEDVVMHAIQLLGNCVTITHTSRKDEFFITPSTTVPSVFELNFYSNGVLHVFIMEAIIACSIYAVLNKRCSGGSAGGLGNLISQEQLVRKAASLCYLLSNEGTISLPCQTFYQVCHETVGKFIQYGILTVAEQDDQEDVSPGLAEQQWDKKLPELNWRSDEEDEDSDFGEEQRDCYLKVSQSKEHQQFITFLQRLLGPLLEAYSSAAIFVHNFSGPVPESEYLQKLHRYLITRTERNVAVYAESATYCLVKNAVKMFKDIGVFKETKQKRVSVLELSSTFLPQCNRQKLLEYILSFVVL
Protocol: The compounds produced as described above were evaluated for their ability to inhibit the acylation of glycerol-3-phosphate in vitro. The acylation reaction between ^14C-labelled glycerol-3-phosphate and palmitoyl-CoA, initiated by adding mtGPAT, was measured in the presence of varying concentrations of the inhibitor by scintillation counting as described in more detail below.
A mitochondrial preparation of glycerol 3-phosphate acyltransferase was added to the incubation mixture containing ^14C-labeled glycerol 3-phosphate, palmitoyl-CoA, and varying inhibitor concentrations to initiate the reaction. After ten min, the reaction was terminated by adding chloroform, methanol, and 1% perchloric acid. Five minutes later, more chloroform and perchloric acid were added, and the upper aqueous layer was removed. After washing three times with 1% perchloric acid, the organic layer was evaporated under nitrogen, and the amount of ^14C present was counted to determine the extent of reaction inhibition. Data points were recorded in triplicate, and IC50 values were calculated based on the amount of test inhibitor necessary to produce 50% of mtGPAT activity observed in the absence of inhibitor but in the presence of DMSO vehicle control.

FAO = FAO (SC 150 and Max) entries of the compound data sheets
[1] = Table 1, sulfonamides 5a-f and 13a-f, triplicate, read-out: IC50 (μM) ± SD, In Vitro Anti-mtGPAT1 Activity
[2] = Table 3, sulfonamides 21a-c and 24a-f, triplicate, read-out: IC50 (μM) ± SD, In Vitro Anti-mtGPAT1 Activity
[3] = Table 2, sulfonamides 15a-i and 17a-f, triplicate, read-out: IC50 (μM) ± SD, In Vitro Anti-mtGPAT1 Activity
[4] = compounds 4a-t and 7a-t, read-out: GPAT IC50

Row | melting point | IC50 (mtGPAT1; [1]) | IC50 (mtGPAT1; [4]) | Structure (SMILES) | FAO SC 150 (FAO) | also measured
1 | 150 to 151 °C | 28.5 µM |  | CCCCCCCCCS(=O)(=O)NCc1cccc(C(=O)O)c1 [Compound 5d, 3-(Nonylsulfonamidomethyl)benzoic acid] |  | 
2 | 141 to 143 °C |  |  | CCCCCCCCS(=O)(=O)Nc1ccc(F)cc1C(=O)O [Compound 24f, 5-Fluoro-2-(octylsulfonamido)benzoic acid] |  | IC50 (mtGPAT1; [2]): 29.5 ± 2.6 µM
3 | 213 to 215 °C |  |  | O=C(O)c1ccccc1NS(=O)(=O)c1ccccc1 [Compound 15h, 2-(Phenylsulfonamido)benzoic acid] |  | IC50 (mtGPAT1; [3]): 40.5 ± 2.6 µM
4 | 142 to 144 °C |  |  | CCCCCCCCS(=O)(=O)Nc1ccc(O)cc1C(=O)O [Compound 24e, 5-Hydroxy-2-(octylsulfonamido)benzoic acid] |  | IC50 (mtGPAT1; [2]): 38.2 ± 4.1 µM
5 | 79 to 82 °C | 22.7 µM |  | CCCCCCCCCS(=O)(=O)NCc1ccccc1C(=O)O [Compound 5f, 2-(Nonylsulfonamidomethyl)benzoic acid] |  | 
6 | 126 to 128 °C |  |  | CCCCCCCCCCCCCCCCS(=O)(=O)Nc1ccccc1C(=O)O [Compound 24c, 2-(Hexadecylsulfonamido)benzoic acid] |  | IC50 (mtGPAT1; [2]): 7.8 ± 0.8 µM
7 | 149 to 150 °C | 23.7 µM |  | CCCCCCCCCS(=O)(=O)Nc1cccc(CP(=O)(O)O)c1 [Compound 13d, 3-(Nonylsulfonamido)benzylphosphonic acid] |  | 
8 | 178 to 180 °C | 43.9 µM |  | CCCCCCCCCS(=O)(=O)NCc1ccc(C(=O)O)cc1 [Compound 5b, 4-(Nonylsulfonamidomethyl)benzoic acid] |  | 
9 |  |  | 24.6 µM | CCCCCCCCS(=O)(=O)Nc1ccc(-c2ccc(C#N)cc2)cc1C(=O)O | FAS (IC50) Not Tested CPT I Stim Not Tested FAO SC 150 Neg SA/MH (MIC) ug/ml | 
10 | 160 to 161 °C | 88.5 ± 1.7 µM |  | CCCCCS(=O)(=O)NCc1cccc(C(=O)O)c1 [Compound 5c, 3-(Pentylsulfonamidomethyl)benzoic acid] |  | 
11 |  |  | 19.1 µM | CCCCCCCCS(=O)(=O)Nc1ccc(-c2ccc(OC)cc2)cc1C(=O)O | FAS (IC50) Not Tested CPT I Stim Not Tested FAO SC 150 Neg SA/MH (MIC) ug/ml | 
12 |  |  | 65.7 µM | CCCCCCCCS(=O)(=O)Nc1ccc(-c2ccc(-c3ccccc3)cc2)cc1C(=O)O | FAS (IC50) Not Tested CPT I Stim Not Tested FAO SC 150 Neg SA/MH (MIC) ug/ml | 
13 | 120 to 122 °C |  |  | CCCCCCCCCCCCCCS(=O)(=O)Nc1ccccc1C(=O)O [Compound 24b, 2-(Tetradecylsulfonamido)benzoic acid] |  | IC50 (mtGPAT1; [2]): 6.9 ± 0.5 µM
14 | 198 to 200 °C | 47.7 ± 9.6 µM |  | CCCCCS(=O)(=O)Nc1ccc(CP(=O)(O)O)cc1 [Compound 13e, 4-(Pentylsulfonamido)benzylphosphonic acid] |  | 
15 | 100 °C | 61.9 ± 13.5 µM |  | CCCCCS(=O)(=O)NCc1ccccc1C(=O)O [Compound 5e, 2-(Pentylsulfonamidomethyl)benzoic acid] |  | 
16 |  |  | 29.2 µM | CCCCCCCCS(=O)(=O)Nc1cc(-c2cccc(C(C)=O)c2)ccc1C(=O)O | FAS (IC50) Not Tested CPT I Stim Not Tested FAO SC 150 Neg SA/MH (MIC) ug/ml | 
17 |  |  | 16 µM | CCCCCCCCS(=O)(=O)Nc1cc(-c2cccc(Cl)c2)ccc1C(=O)O | FAS (IC50) Not Tested CPT I Stim Not Tested FAO SC 150 Neg SA/MH (MIC) ug/ml | 
18 | 127 to 128 °C | 45.3 ± 9 µM |  | CCCCCS(=O)(=O)Nc1cccc(CP(=O)(O)O)c1 [Compound 13c, 3-(Pentylsulfonamido)benzylphosphonic acid] |  | 
19 |  |  | 13.5 µM | CCCCCCCCS(=O)(=O)Nc1ccc(-c2ccccc2-c2ccccc2)cc1C(=O)O | FAS (IC50) Not Tested CPT I Stim Not Tested FAO SC 150 Neg SA/MH (MIC) ug/ml | 
20 |  |  | 17.6 µM | CCCCCCCCS(=O)(=O)Nc1cc(-c2ccccc2OC)ccc1C(=O)O | FAS (IC50) Not Tested CPT I Stim Not Tested FAO SC 150 Neg SA/MH (MIC) ug/ml | 
21 | 188 to 189 °C | 72 ± 1.7 µM |  | CCCCCS(=O)(=O)NCc1ccc(C(=O)O)cc1 [Compound 5a, 4-(Pentylsulfonamidomethyl)benzoic acid] |  | 
22 |  |  | 13.4 µM | CCCCCCCCS(=O)(=O)Nc1ccc(-c2ccc(Cl)cc2)cc1C(=O)O | FAS (IC50) Not Tested CPT I Stim Not Tested FAO SC 150 Neg SA/MH (MIC) ug/ml | 
23 |  |  | 20 µM | CCCCCCCCS(=O)(=O)Nc1cc(-c2ccc(C#N)cc2)ccc1C(=O)O | FAS (IC50) Not Tested CPT I Stim Not Tested FAO SC 150 Neg SA/MH (MIC) ug/ml | 
24 |  |  | 28 µM | CCCCCCCCS(=O)(=O)Nc1ccc(-c2cccc(C(C)=O)c2)cc1C(=O)O | FAS (IC50) Not Tested CPT I Stim Not Tested FAO SC 150 Neg SA/MH (MIC) ug/ml | 
25 | 183 to 184 °C |  |  | CCCCCCCCCS(=O)(=O)Nc1cccc(C(=O)O)c1 [Compound 15d, 3-(Nonylsulfonamido)benzoic acid] |  | IC50 (mtGPAT1; [3]): 24.2 ± 2.9 µM
26 |  |  | 16 µM | CCCCCCCCS(=O)(=O)Nc1cc(-c2ccc(OC)cc2)ccc1C(=O)O | FAS (IC50) Not Tested CPT I Stim Not Tested FAO SC 150 Neg SA/MH (MIC) ug/ml | 
